Reference: patent publication US9453005B2, “Inhibition of influenza M2 proton channel” (The Trustees Of The University Of Pennsylvania, priority 2008, dated 2016)

What follows are compounds tested against AM2(V27A) (Influenza A virus, UniProt P0DOF5, V27A).
Format: biochemical

Row | Structure (SMILES) | % Activity
1 | NC1CCC2(CCCCC2)CC1 [Compound 8, Spiro[5.5]undec-3-ylamine] | 8 (47.34%) 9 (68.39%)
2 | CNC1CCC2(CCCCC2)CC1 [Compound 9, Methyl-spiro[5.5]undec-3-yl-amine] | 8 (47.34%) 9 (68.39%)
3 | Cl.NC12CC3CC(CC(C3)C1)C2 [amantadine, reference compound] | 99.1%
